Test results from paper PMC6946680, “Modulation of brain cation-Cl^− cotransport via the SPAK kinase inhibitor ZT-1a” (Nature Communications, 2020).
Several values for one entry are separate records, joined by “and”; a condition that tells them apart may be missing. Equal values may be shown once. Read-outs that look alike come from different tables or passages of the source.

Columns and labels:
humans = conditions: cited from earlier work
[1] = set-up: method as in Reviewer #3; conditions: as stated by Reviewer #3 in the peer-review file; ref Reviewer #3; cited from earlier work
KCC3 pThr991 = assay: Immunoblot of KCC site 1 phosphorylation (KCC3 Thr991) in HEK-293 cells transfected with FLAG-KCC3; type: cell-based, human; conditions: for KCC3 pThr991 / KCC3: Fig S4b
KCC3 pThr1048 = assay: Immunoblot of KCC site 2 phosphorylation (KCC3 Thr1048) in HEK-293 cells transfected with FLAG-KCC3; type: cell-based, human; conditions: Fig S4b
AMPK (hum) = assay: Kinase profiling panel; type: biochemical, human
Procedure: (§1) Supplementary Table 2. ZT-1a kinase profiling data6.
(§2) ZT-1a was tested at 10 and 1 µM against a panel of 140 recombinant kinases in an enzymatic
(§3) activity-based assay performed by the International Centre for Kinase Profiling in the MRC
(§4) Protein Phosphorylation and Ubiquitylation Unit. Values represent % residual kinase activity

[2] = ZT-1a pharmacokinetic properties in naive mice; type: in vivo, ICR mice; conditions: mouse, plasma; for MRT inf: read-out: MRT(0-∞)
Procedure: 1 Supplemental Table 3. ZT-1a pharmacokinetic (PK) properties in naïve mice.
2 ZT-1a pharmacokinetics were determined following a single 5 mg/kg intravenous (IV) dose and a single 10 mg/kg oral (PO) dose in
3 ICR mice (N = 3 at each time point).
Samples were subjected to drug assay by LC-MS/MS, and data were analyzed by WinNonlin V6.3. Tmax =
5 time of maximum plasma concentration, Cmax = maximum plasma concentration, AUC = area under the curve (measure of exposure),
6 T1/2 = half life, CL = plasma clearance, Vz = volume of distribution, MRT, mean residence time; F = oral bioavailability.

[3] = system: mouse model of ischemic stroke (tMCAO); assay: Corner test after tMCAO; type: in vivo; conditions: for Corner test (Unilateral turns): Fig 7c, individual mice #1-#7
KCC1 pThr927/pThr983 = assay: Choroid plexus KCC1 phospho-IP/immunoblot in rat IVH model; type: in vivo
[4] = system: GSK-3β Ser9 phosphorylation; assay: Immunoblot of GSK-3β Ser9 phosphorylation in HEK-293 cells; conditions: for GSK3b pSer9 / Actin: Fig S4b
[5] = system: mouse model of ischemic stroke (tMCAO); assay: Neurological deficit score after tMCAO; type: in vivo; conditions: for Neurological score (score): Fig 7c, individual mice #1-#7; for neurological deficit score: ZT-1a 5.0 mg/kg
[6] = system: CSF secretion by choroid plexus epithelium; assay: Rate of CSF production after IVH with intracerebroventricular drug; type: in vivo; conditions: rat; ZT-1a treatment for 48 h at 10 µM
[7] = biological target: panel of 140 recombinant kinases; type: biochemical
Procedure: as §1, §2, §3, §4

[8] = system: mouse model of ischemic stroke (tMCAO); assay: Ex vivo T2-weighted MRI and DTI of brains 7 days post tMCAO; type: in vivo
[9] = 7 days post stroke, ZT-1a 5.0 mg/kg

In the case of `Cc1cc(C(C#N)c2ccc(Cl)cc2)c(Cl)cc1NC(=O)c1cc(I)cc(I)c1O` (stereo not drawn) [Closantel, reference compound], the “toxicity contraindicating use in humans” value (humans) is listed as “retinal toxicity”.

In the case of `Cc1cc(C(C#N)c2ccc(Cl)cc2)c(Cl)cc1NC(=O)c1cc(Cl)ccc1O` (stereo not drawn) [ZT-1a, 5-chloro-N-(5-chloro-4-((4-chlorophenyl)(cyano)methyl)-2-methylphenyl)-2-hydroxybenzamide], the logP [1] is listed as over 6, the inhibition at 3 µM (KCC3 pThr991; Homo sapiens, HEK293, 3 µM, HEK-293 cells, n = 4, read-out: inhibition of phosphorylation of KCC sites 1/2) is listed as 65 to 77% and the “KCC3 pThr991 / KCC3” value (KCC3 pThr991; ZT-1a 0.3 uM) is listed as 0.89 and 0.932 and 0.861 and 0.828. For the same compound, the “KCC3 pThr991 / KCC3” value (KCC3 pThr991; ZT-1a 1 uM) was 0.63 and 0.651 and 0.702 and 0.601, the “KCC3 pThr991 / KCC3” value (KCC3 pThr991; ZT-1a 3 uM) was 0.65 and 0.601 and 0.553 and 0.517 and the “KCC3 pThr1048 / KCC3” value (KCC3 pThr1048; ZT-1a 0.3 uM) was 0.52 and 0.601 and 0.501 and 0.473. For the same compound, the “KCC3 pThr1048 / KCC3” value (KCC3 pThr1048; ZT-1a 3 uM) was 0.31 and 0.301 and 0.253 and 0.205, the “% residual kinase activity” value (AMPK (hum); 1 µM) was 126±4% and the “% residual kinase activity” value (AMPK (hum); 10 µM) was 108±4%. The AUC ([2]; ICR, intravenous, 5 mg/kg, naive mice) was 2340 ng·h/mL, the half-life ([2]; ICR, intravenous, 5 mg/kg, naive mice, read-out: T1/2 (plasma half-life) (converted)) was 1.8 h and the half-life ([2]; ICR, iv, 5 mg/kg, IV 5 mg/kg, ICR mice, read-out: t1/2 (converted)) was 1.8 h. It also gave a bioavailability ([2]; ICR, oral, 10 mg/kg, naive mice) of 2.2%, a half-life ([2]; ICR, po, 10 mg/kg, PO 10 mg/kg, ICR mice, read-out: t1/2 (converted)) of 2.6 h and an AUC(0-inf) ([2]; IV 5 mg/kg, ICR mice) of 2350 ng·h/mL. It also gave an AUC(0-t) ([2]; IV 5 mg/kg, ICR mice) of 2340 ng·h/mL, a C0 ([2]; IV 5 mg/kg, ICR mice) of 14900 ng/mL and a Cmax ([2]; IV 5 mg/kg, ICR mice) of 6910 ng/mL. It also gave a Tmax ([2]; IV 5 mg/kg, ICR mice) of 0.08 h, a clearance ([2]; IV 5 mg/kg, ICR mice) of 35.5 mL/min/kg and an MRT inf ([2]; IV 5 mg/kg, ICR mice) of 0.45 h. The Vd ([2]; IV 5 mg/kg, ICR mice, read-out: Vz) was 0.948 L/kg, the AUC(0-inf) ([2]; PO 10 mg/kg, ICR mice) was 105 ng·h/mL and the AUC(0-t) ([2]; PO 10 mg/kg, ICR mice) was 97.3 ng·h/mL. It also gave a Cmax ([2]; PO 10 mg/kg, ICR mice) of 94 ng/mL, a Tmax ([2]; PO 10 mg/kg, ICR mice) of 0.25 h and a bioavailability ([2]; PO 10 mg/kg, ICR mice) of 2.2%. For the same compound, the MRT inf ([2]; PO 10 mg/kg, ICR mice) was 3.3 h, the “Corner test (Unilateral turns)” value ([3]; Day 1) was 9 Unilateral turns (2×) and 10 Unilateral turns and 6 Unilateral turns (4×) and the “Corner test (Unilateral turns)” value ([3]; Day 3) was 6 Unilateral turns (2×) and 10 Unilateral turns and 7 Unilateral turns (3×) and 5 Unilateral turns. The “Corner test (Unilateral turns)” value ([3]; Day 5) was 6 Unilateral turns (5×) and 5 Unilateral turns (2×), the “Corner test (Unilateral turns)” value ([3]; Day 7) was 6 Unilateral turns (4×) and 5 Unilateral turns (3×) and the “Corner test (Unilateral turns)” value ([3]; Day -1 (baseline)) was 5 Unilateral turns (5×) and 6 Unilateral turns (2×). For the same compound, the “corner test, turn preference/asymmetries” value ([3]; ZT-1a 5.0 mg/kg, days 1–7 post stroke) was “absence of asymmetries by day 7 post stroke”, the “KCC1 pThr983 / Actin” value (KCC1 pThr927/pThr983; rat CPe 48 h post IVH + 1a, replicates) was 0.273 and 0.737 and 0.782 and 0.302 and 0.649 and 0.721 and the “KCC1 pThr927 / Actin” value (KCC1 pThr927/pThr983; rat CPe 48 h post IVH + 1a, replicates (Fig 4 source data)) was 0.027 and 0.029 and 0.034 and 0.025 and 0.037 and 0.024. The “reduction of post-IVH KCC1 phosphorylation at Thr927” value (KCC1 pThr927/pThr983; rat CPe, ICV ZT-1a) was 12 fold, the “reduction of post-IVH KCC1 phosphorylation at Thr983” value (KCC1 pThr927/pThr983; rat CPe, ICV ZT-1a) was 3.4 fold and the “GSK-3β Ser9 phosphorylation” value ([4]; 3 µM ZT-1a, HEK-293 cells) was “not inhibited”. For the same compound, the “GSK3b pSer9 / Actin” value ([4]; ZT-1a 0.3 uM) was 0.56 and 0.601 and 0.586 and 0.538, the “GSK3b pSer9 / Actin” value ([4]; ZT-1a 1 uM) was 0.58 and 0.576 and 0.603 and 0.529 and the “GSK3b pSer9 / Actin” value ([4]; ZT-1a 3 uM) was 0.53 and 0.5901 and 0.613 and 0.56. For the same compound, the “Neurological score (score)” value ([5]; Day 0) was 3 score, the “Neurological score (score)” value ([5]; Day 1) was 3 score and 2 score (5×) and 1 score and the “Neurological score (score)” value ([5]; Day 3) was 2 score (6×) and 1 score. For the same compound, the “Neurological score (score)” value ([5]; Day 5) was 1 score (3×) and 2 score (4×), the “Neurological score (score)” value ([5]; Day 7) was 1 score (4×) and 2 score (3×) and the neurological deficit score ([5]; day 1 post tMCAO) was 2.0 ± 0.2. The neurological deficit score ([5]; day 7 post tMCAO) was 1.4 ± 0.2, the “decrease of post-IVH CSF hypersecretion” value [6] was ~ 2.3 fold and the “kinases of the 140 tested with >50% inhibition” value ([7]; 1 µM ZT-1a) was “only a single kinase”. For the same compound, the “share of the 140 kinases not inhibited by >70%” value ([7]; 1 µM ZT-1a vs DMSO control) was 98%, the “EC tract FA values in the IL hemisphere” value [8, 9] was “undiminished” and the “reduction of brain atrophy (% hemisphere shrinkage)” value [8, 9] was ~ 41%. The “reduction of stroke-induced lesion volume (T2-weighted MRI)” value [8, 9] was ~ 40%, the “EC FA value” ([8]; Fig 7d, CL hemisphere, individual brains) was 0.3452 and 0.2737 and 0.3976 and 0.3529 and 0.3132 and 0.3022 and 0.3144 and the “EC FA value” ([8]; Fig 7d, IL hemisphere, individual brains) was 0.3284 and 0.2019 and 0.3515 and 0.3727 and 0.2854 and 0.2283 and 0.2974. The “% Shrinkage” value ([8]; Fig 7d, individual brains) was 4.31% and 1.96% and 1.98% and 5.61% and 5.20% and 3.63% and 2.52% and the “Lesion volume (mm3)” value ([8]; Fig 7d, individual brains) was 33.98 mm3 and 34.15 mm3 and 17.99 mm3 and 33.62 mm3 and 29.17 mm3 and 52.2 mm3 and 18.61 mm3.
